Results reported in article PMC2685384, “Binding characteristics of the ovine membrane progesterone receptor alpha and expression of the receptor during the estrous cycle” (Reproductive Biology and Endocrinology : RB&E, 2009).
Where two headings read alike, the source gives them in different places. Each block holds one compound with its values, some of them ahead of it.

Experiments:
[1] = target: T1, ovine membrane progesterone receptor alpha (mPRα) (Ovis aries, UniProt A0ACI6Q1G6); experiment: radioligand competition against 3H-progesterone on mPRα-CHO membranes; type: binding
T1 construct: gene PAQR7; ovine mPRα expressed in CHO cells; digitonin-treated crude membrane fractions
T1 sequence (A0ACI6Q1G6 1-350): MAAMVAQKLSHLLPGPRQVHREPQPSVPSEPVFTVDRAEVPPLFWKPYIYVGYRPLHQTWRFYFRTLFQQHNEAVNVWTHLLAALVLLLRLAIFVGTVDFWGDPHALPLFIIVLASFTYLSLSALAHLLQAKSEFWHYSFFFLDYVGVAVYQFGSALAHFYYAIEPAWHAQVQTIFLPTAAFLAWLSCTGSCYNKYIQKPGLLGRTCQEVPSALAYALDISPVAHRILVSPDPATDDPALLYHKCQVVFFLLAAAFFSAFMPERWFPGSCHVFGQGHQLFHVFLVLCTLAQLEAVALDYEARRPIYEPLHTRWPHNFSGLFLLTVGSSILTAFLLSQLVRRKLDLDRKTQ

[2] = target: T1, ovine membrane progesterone receptor alpha (mPRα); experiment: 3H-progesterone saturation binding on membranes of stable mPRα-CHO cells (also competition, IC50 =[…])

IC50 ([1]; read-out: IC50): 735 nM
SMILES: CC(=O)[C@@]1(O)CC[C@H]2[C@@H]3CCC4=CC(=O)CC[C@]4(C)[C@H]3CC[C@@]21C [17-OH-P4, 17α-hydroxyprogesterone]

SMILES: C[C@H](O)[C@H]1CC[C@H]2[C@@H]3CCC4=CC(=O)CC[C@]4(C)[C@H]3CC[C@]12C [20-OH-P4, 20α-hydroxyprogesterone]
IC50 [1]: 298 nM

SMILES: CC(=O)[C@H]1CC[C@H]2[C@@H]3CCC4=CC(=O)CC[C@]4(C)[C@H]3CC[C@]12C [P4, progesterone]
Kd [2]: 122 nM
